For one experiment, the target named is T1, human DP1 receptor (Homo sapiens, UniProt Q13258).
T1 construct: tissue Biological Specialty Corporation; host or cells: human platelets, membranes
T1 sequence (Q13258 1-359): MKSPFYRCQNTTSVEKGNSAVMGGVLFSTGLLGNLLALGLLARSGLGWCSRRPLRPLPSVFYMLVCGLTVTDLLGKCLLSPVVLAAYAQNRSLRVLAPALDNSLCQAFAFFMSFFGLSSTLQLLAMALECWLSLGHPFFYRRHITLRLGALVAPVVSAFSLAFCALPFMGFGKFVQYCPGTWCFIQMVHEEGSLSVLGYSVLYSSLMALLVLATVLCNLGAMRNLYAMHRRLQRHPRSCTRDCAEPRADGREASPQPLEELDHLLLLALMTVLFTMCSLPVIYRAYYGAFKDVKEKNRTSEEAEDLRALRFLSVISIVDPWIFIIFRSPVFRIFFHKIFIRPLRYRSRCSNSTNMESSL
Put plainly: DP1 radioligand membrane binding assay using [3H]BWA868C. The settings on record: [3H]BWA868C binding, human platelet membranes; read-out: hDP1. As to the method:
The ability of a compound to bind to the human DP1 receptor was evaluated via a radioligand membrane binding assay using the DP1 selective synthetic ligand [^3H]BWA868C. Packed human platelets (Biological Specialty Corporation), were resuspended in 6 volumes of Hepes/HBSS buffer (10 mM Hepes, 1 mM DTT in Hanks Balanced Salt Solution (HBSS)), lysed and centrifuged at 75,000×g to pellet the membranes. Membranes were resuspended in Hepes/HBSS buffer to approximately 12 mg protein/ml. Membranes (20 μg protein/well) are incubated in 96-well plates with 2 nM [^3H]BWA868C and test compound in Assay Buffer (50 mM Hepes, 10 mM MnCl2, 1 mM EDTA, plus or minus 0.2% human serum albumin, pH 7.4) for 60 minutes at room temperature. The reactions are terminated by rapid filtration through Whatman GF/C glass fibre filter plates. The filter plates were pre-soaked in […] polethylenimine for 30 minutes at room temperature then washed in Wash Buffer (50 mM Hepes, 0.5 M NaCl pH 7.4) prior to harvesting. After harvesting, the filter plates are washed 3 times with 1 ml cold Wash Buffer then dried. Scintillant is then added to the plates and the radioactivity retained on the filters is determined on a Packard TopCount (Perkin Elmer). Specific binding is determined as total radioactive binding minus non-specific binding in the presence of 10 μM BWA868C. IC50s were determined using GraphPad prism analysis of drug titration curves.

For a further experiment, the target named is T2, human DP2 receptor (Homo sapiens, UniProt Q9Y5Y4).
T2 construct: expressed in transfected cells
T2 sequence (Q9Y5Y4 1-395): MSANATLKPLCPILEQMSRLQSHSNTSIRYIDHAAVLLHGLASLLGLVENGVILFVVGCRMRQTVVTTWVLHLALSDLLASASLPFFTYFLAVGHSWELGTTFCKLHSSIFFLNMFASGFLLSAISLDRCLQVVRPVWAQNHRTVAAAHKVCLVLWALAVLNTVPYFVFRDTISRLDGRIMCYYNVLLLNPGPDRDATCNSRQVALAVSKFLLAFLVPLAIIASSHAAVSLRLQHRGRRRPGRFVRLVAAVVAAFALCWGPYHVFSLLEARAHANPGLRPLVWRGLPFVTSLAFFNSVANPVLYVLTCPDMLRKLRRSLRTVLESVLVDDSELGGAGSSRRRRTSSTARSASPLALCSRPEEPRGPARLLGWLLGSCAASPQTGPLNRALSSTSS
The experiment in a line: DP2/CRTH2 radioligand binding assay using [3H]PGD2. The following applies: [3H]PGD2 binding, membranes of HEK293 cells expressing recombinant human DP2; read-out: hDP2. The procedure: The ability of a compound to bind to the human DP2 receptor is assessed via a radioligand binding assay using [^3H]PGD2. HEK293 cells stably expressing recombinant human DP2 are resuspended in 10 mM Hepes, 7.4 containing 1 mM DTT, lysed and centrifuged at 75,000×g to pellet the membranes. The membranes are resuspended in 10 mM Hepes, 7.4 containing 1 mM DTT and 10% glycerol to approximately 5 mg protein/ml. Membranes (2-10 μg protein/well) are incubated in 96-well plates with 1 nM [^3H]PGD2 and test compound in Assay Buffer (50 mM Hepes, 10 mM MnCl2, 1 mM EDTA, plus or minus 0.2% human serum albumin, pH 7.4) for 60 minutes at room temperature. The reactions are terminated by rapid filtration through Whatman GF/C glass fibre filter plates. The filter plates were pre-soaked in 0.33% polythylenimine for 30 minutes at room temperature then washed in Wash Buffer (50 mM Hepes, 0.5 M NaCl pH 7.4) prior to harvesting. After harvesting, the filter plates are washed 3 times with 1 ml cold Wash Buffer then dried. Scintillant is then added to the plates and the radioactivity retained on the filters is determined on a Packard TopCount (Perkin Elmer). Specific binding is determined as total radioactive binding minus non-specific binding in the presence of 10 μM PGD2. IC50s were determined using GraphPad prism analysis of drug titration curves.

Bounds are passed on as bounds.

Regarding `CCN(Cc1cc(C(F)(F)F)ccc1-c1cc(CC(=O)O)ccc1OC)C(=O)NCc1ccc(Cl)c(Cl)c1` [Compound 1-152, {2′-[3-(3,4-Dichloro-benzyl)-1-ethyl-ureidomethyl]-6-methoxy-4′-trifluoromethyl-biphenyl-3-yl}-acetic acid], the IC50 on human DP1 receptor is over 1 µM; on human DP2 receptor it was under 0.3 µM.

Consider `CCNC(=O)N(CC)Cc1cc(C(F)(F)F)ccc1-c1cc(CC(=O)O)ccc1OC` [Compound 1-181, [2′-(1,3-Diethyl-ureidomethyl)-6-methoxy-4′-trifluoromethyl-biphenyl-3-yl]-acetic acid], for which the IC50 was over 1 µM on human DP1 receptor and under 0.3 µM on human DP2 receptor.

With `CCN(Cc1cc(F)ccc1-c1cc(CC(=O)O)ccc1OC)C(C)=O` [Compound 1-184, {2′-[(Acetyl-ethyl-amino)-methyl]-4′-fluoro-6-methoxy-biphenyl-3-yl}-acetic acid], the IC50 at human DP1 receptor was over 1 µM; at human DP2 receptor, under 0.3 µM.

`CCN(Cc1cc(C(F)(F)F)ccc1-c1cc(CC(=O)O)ccc1OC)C(=O)N[C@@H](C)c1ccc(Cl)cc1` [Compound 1-180, (2′-{3-[(S)-1-(4-Chloro-phenyl)-ethyl]-1-ethyl-ureidomethyl}-6-methoxy-4′-trifluoromethyl-biphenyl-3-yl)-acetic acid]: the IC50 at human DP1 receptor was over 1 µM; on human DP2 receptor, under 0.3 µM.

`O=C(O)Cc1ccc(F)c(-c2ccc(C(F)(F)F)cc2CN(CC(F)(F)F)C(=O)OCc2ccccc2)c1` [Compound 1-49, (2′-{[Benzyloxycarbonyl-(2,2,2-trifluoro-ethyl)-amino]-methyl)-6-fluoro-4′-trifluoromethyl-biphenyl-3-yl)-acetic acid]: the IC50 at human DP1 receptor and on human DP2 receptor was over 1 µM throughout.

For the compound `COc1ccc(CC(=O)O)cc1-c1ccc(C(=O)O)cc1CN(CC(F)(F)F)C(C)=O` [Compound 1-37, 2-{[Acetyl-(2,2,2-trifluoro-ethyl)-amino]-methyl}-5′-carboxymethyl-2′-methoxy-biphenyl-4-carboxylic acid], the IC50 at human DP1 receptor and on human DP2 receptor was over 1 µM in each case.

For the compound `CCN(Cc1cc(NC(C)=O)ccc1-c1cc(CC(=O)O)ccc1OC)C(=O)OCc1ccccc1` [Compound 1-153, {4′-Acetylamino-2′-[(benzyloxycarbonyl-ethyl-amino)-methyl]-6-methoxy-biphenyl-3-yl}-acetic acid], the IC50 at human DP1 receptor is over 1 µM; at human DP2 receptor, under 0.3 µM.

Regarding `CCN(Cc1cc(C(F)(F)F)ccc1-c1cc(CC(=O)O)ccc1OC)C(=O)NCc1ccc(F)cc1` [Compound 1-176, {2′-[1-Ethyl-3-(4-fluoro-benzyl)-ureidomethyl]-6-methoxy-4′-trifluoromethyl-biphenyl-3-yl}-acetic acid], the IC50 was over 1 µM on human DP1 receptor and under 0.3 µM at human DP2 receptor.

Turning to `CCN(Cc1cc(C(F)(F)F)ccc1-c1cc(CC(=O)O)ccc1OC)C(=O)N[C@H](C)c1ccc(Cl)cc1` [Compound 1-179, (2′-{3-[(R)-1-(4-Chloro-phenyl)-ethyl]-1-ethyl-ureidomethyl}-6-methoxy-4′-trifluoromethyl-biphenyl-3-yl)-acetic acid], the results for the IC50 on human DP1 receptor and at human DP2 receptor were over 1 µM and under 0.3 µM, respectively.

For `CCN(Cc1cc(F)ccc1-c1cc(CC(=O)O)ccc1OC)C(=O)NCc1ccccc1` [Compound 1-187, [2′-(3-Benzyl-1-ethyl-ureidomethyl)-4′-fluoro-6-methoxy-biphenyl-3-yl]-acetic acid], the IC50 is over 1 µM on human DP1 receptor and under 0.3 µM at human DP2 receptor.

For the compound `CCN(Cc1cc(C(F)(F)F)ccc1-c1cc(CC(=O)O)ccc1OC)C(=O)NCc1cc(Cl)cc(Cl)c1` [Compound 1-165, {2′-[3-(3,5-Dichloro-benzyl)-1-ethyl-ureidomethyl]-6-methoxy-4′-trifluoromethyl-biphenyl-3-yl}-acetic acid], the IC50 at human DP1 receptor is over 1 µM; at human DP2 receptor, under 0.3 µM.

The record behind these values is patent publication US20110098352A1, “N,N-DISUBSTITUTED AMINOALKYLBIPHENYL ANTAGONISTS OF PROSTAGLANDIN D2 RECEPTORS” (AMIRA PHARMACEUTICALS, INC., priority 2008, published 2011).
